PubChem BioAssay (NCI)
“And” between values parts separate entries of the source, which are not always exact repeats. Equal entries are not always repeated.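 These data come from cells grown in 96-well plates and exposed to compound for 48 hours at five concentrations. The concentration for 50% growth inhibition is given as GI50. TGI: total growth inhibition.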

Assays:
Assay in all cases: growth of human tumour cells (NCI), 48 h
NCI/ADR-RES ovarian = test system: NCI/ADR-RES ovarian
SK-MEL-5 melanoma = test system: SK-MEL-5 melanoma
COLO 205 colon = test system: COLO 205 colon
SNB-75 CNS = test system: SNB-75 CNS
TK-10 renal = test system: TK-10 renal
A549 NSCLC = test system: A549 NSCLC
KM12 colon = test system: KM12 colon
HOP-62 NSCLC = test system: HOP-62 NSCLC
DU-145 prostate = test system: DU-145 prostate
UACC-62 melanoma = test system: UACC-62 melanoma

## CCOc1ccc(-n2cc(-c3ccc(N(C)C)cc3)[n+]3c2CCCCC3)cc1
NCI/ADR-RES ovarian
  GI50: 31.1 µM
  TGI: > 100 µM
SK-MEL-5 melanoma
  GI50: 0.0958 µM
  TGI: 0.475 µM
COLO 205 colon
  GI50: 0.197 µM
  TGI: 1.73 µM
SNB-75 CNS
  GI50: 0.906 µM
  TGI: 17.7 µM
TK-10 renal
  GI50: 0.827 µM
  TGI: 49 µM
A549 NSCLC
  GI50: 1.88 µM
  TGI: > 100 µM
KM12 colon
  GI50: 0.168 µM
  TGI: 27.8 µM
HOP-62 NSCLC
  GI50: 2.3 µM
  TGI: > 77.9 µM
DU-145 prostate
  GI50: 1.82 µM
  TGI: > 100 µM
UACC-62 melanoma
  GI50: 0.199 µM
  TGI: 13.5 µM

## COc1ccc(-c2nn(C(=O)c3cc(OC)c(OC)c(OC)c3)c3cc(N)ccc23)cc1
NCI/ADR-RES ovarian
  GI50: < 0.01 µM
  TGI: 2.28 µM
SK-MEL-5 melanoma
  GI50: < 0.0145 µM
  TGI: 0.0453 µM
COLO 205 colon
  GI50: 0.0217 µM
  TGI: 0.0489 µM
SNB-75 CNS
  GI50: < 0.0122 µM
  TGI: 7.76 µM
TK-10 renal
  GI50: 6.09 µM
  TGI: 27.4 µM
A549 NSCLC
  GI50: < 0.0146 µM
  TGI: 3.96 µM
KM12 colon
  GI50: < 0.01 µM
  TGI: 1.83 µM
HOP-62 NSCLC
  GI50: < 0.0153 µM
  TGI: 6.33 µM
DU-145 prostate
  GI50: < 0.013 µM
  TGI: 0.345 µM
UACC-62 melanoma
  GI50: < 0.01 µM
  TGI: 15.3 µM

## COc1cc(/C=C/C(=O)c2ccc(SC)cc2)cc(OC)c1OC
NCI/ADR-RES ovarian
  GI50: 4.68 µM
  TGI: 26.4 µM
SK-MEL-5 melanoma
  GI50: 12 µM
  TGI: 24.5 µM
COLO 205 colon
  GI50: 13.3 µM
  TGI: 31.5 µM
SNB-75 CNS
  GI50: 6.08 µM
  TGI: 20.5 µM
TK-10 renal
  GI50: 18 µM
  TGI: 33.5 µM
A549 NSCLC
  GI50: 6.25 µM
  TGI: 20.7 µM
KM12 colon
  GI50: 13.3 µM
  TGI: 29.1 µM
HOP-62 NSCLC
  GI50: 14.7 µM
  TGI: 29.5 µM
DU-145 prostate
  GI50: 12.8 µM
  TGI: 26.4 µM
UACC-62 melanoma
  GI50: 3.46 µM
  TGI: 13.5 µM

## c1ccc2c(c1)-c1nc3ccccc3cc1C2N1CCOCC1 (stereo not given)
NCI/ADR-RES ovarian
  TGI: > 100 µM
SK-MEL-5 melanoma
  TGI: > 100 µM
COLO 205 colon
  TGI: > 100 µM
SNB-75 CNS
  TGI: > 100 µM
TK-10 renal
  TGI: > 100 µM
A549 NSCLC
  TGI: > 100 µM
KM12 colon
  TGI: > 100 µM
HOP-62 NSCLC
  TGI: > 100 µM
DU-145 prostate
  TGI: > 100 µM
UACC-62 melanoma
  TGI: > 100 µM

## COC(=O)c1cccc(COc2ccc([N+](=O)[O-])cc2Cl)c1
NCI/ADR-RES ovarian
  TGI: > 100 µM
SK-MEL-5 melanoma
  TGI: > 100 µM
COLO 205 colon
  TGI: > 100 µM
SNB-75 CNS
  TGI: > 100 µM
TK-10 renal
  TGI: > 100 µM
A549 NSCLC
  TGI: > 100 µM
KM12 colon
  TGI: > 100 µM
HOP-62 NSCLC
  TGI: > 100 µM
DU-145 prostate
  TGI: > 100 µM
UACC-62 melanoma
  TGI: > 100 µM

## COc1ccc2nc3c(cc2c1)C(=O)CC(C(F)(F)F)C3 (stereo not given)
NCI/ADR-RES ovarian
  GI50: 0.367 µM
  TGI: > 100 µM
SK-MEL-5 melanoma
  GI50: 0.545 µM
  TGI: 9.75 µM
COLO 205 colon
  GI50: 0.958 µM
  TGI: > 55.9 µM
SNB-75 CNS
  GI50: 1.04 µM
  TGI: > 100 µM
TK-10 renal
  GI50: > 84.1 µM
  TGI: > 100 µM
A549 NSCLC
  GI50: 2.48 µM
  TGI: > 100 µM
KM12 colon
  GI50: 0.351 µM
  TGI: > 100 µM
HOP-62 NSCLC
  GI50: 3.36 µM
  TGI: > 100 µM
DU-145 prostate
  GI50: 0.714 µM
  TGI: > 100 µM
UACC-62 melanoma
  GI50: 0.602 µM
  TGI: > 100 µM

## N[C@@H](Cc1ccc(N(CCCl)CCCl)cc1)C(=O)O
NCI/ADR-RES ovarian
  GI50: 30.6 µM and 32 µM
  TGI: > 100 µM and 146 µM
SK-MEL-5 melanoma
  GI50: 27 µM and 18.4 µM
  TGI: > 100 µM and 40 µM and 88 µM
COLO 205 colon
  GI50: 23.6 µM and 18.4 µM
  TGI: > 100 µM and 37.1 µM and 107 µM
SNB-75 CNS
  GI50: 16.3 µM and 14.4 µM
  TGI: 95.9 µM and > 51.6 µM and 123 µM
TK-10 renal
  GI50: 75.3 µM
  TGI: > 100 µM and 175 µM
A549 NSCLC
  GI50: 23.9 µM and 16.7 µM
  TGI: > 100 µM and > 90.2 µM and 186 µM
KM12 colon
  GI50: 83.9 µM and 42.7 µM
  TGI: > 100 µM and > 83.7 µM and 168 µM
HOP-62 NSCLC
  GI50: 28.7 µM and 4.34 µM
DU-145 prostate
  GI50: 18.8 µM
  TGI: 85.7 µM and 227 µM
UACC-62 melanoma
  GI50: 8.7 µM and 6.39 µM
  TGI: > 100 µM and 22.2 µM and 46.2 µM

## NC(CSC(c1ccccc1)(c1ccccc1)c1ccc(Br)cc1)C(=O)O (stereo not given)
NCI/ADR-RES ovarian
  GI50: 0.976 µM
  TGI: 4.54 µM
SK-MEL-5 melanoma
  GI50: 0.0721 µM
  TGI: 12.2 µM
COLO 205 colon
  GI50: 0.241 µM
  TGI: 15.2 µM
SNB-75 CNS
  GI50: 0.729 µM
  TGI: > 50.8 µM
TK-10 renal
  GI50: 14 µM
  TGI: > 100 µM
A549 NSCLC
  GI50: 0.375 µM
  TGI: > 82.3 µM
KM12 colon
  GI50: 0.212 µM
  TGI: 12.7 µM
HOP-62 NSCLC
  GI50: 0.457 µM
  TGI: 21.8 µM
DU-145 prostate
  GI50: 0.236 µM
  TGI: 0.548 µM
UACC-62 melanoma
  GI50: 0.17 µM
  TGI: 17.4 µM

## O=c1c(Br)ccc(Br)cc1Br
NCI/ADR-RES ovarian
  GI50: 2.56 µM
  TGI: 7.16 µM
SK-MEL-5 melanoma
  GI50: 3.19 µM
  TGI: 10.9 µM
COLO 205 colon
  GI50: 0.216 µM
  TGI: 0.442 µM
SNB-75 CNS
  GI50: 1.83 µM
  TGI: 4.24 µM
TK-10 renal
  GI50: 1.55 µM
  TGI: 5.23 µM
A549 NSCLC
  GI50: 9.02 µM
  TGI: 31.8 µM
KM12 colon
  GI50: 2.64 µM
  TGI: 6.36 µM
HOP-62 NSCLC
  GI50: 2.38 µM
  TGI: 5.58 µM
DU-145 prostate
  GI50: 1.75 µM
  TGI: 3.14 µM
UACC-62 melanoma
  GI50: 1.75 µM
  TGI: 3.27 µM

## Nc1c2c(c(O)c3c1=C(CO)C=N3)=NCCS2=O (stereo not given)
NCI/ADR-RES ovarian
  GI50: 2.51 µM
  TGI: 8.99 µM
SK-MEL-5 melanoma
  GI50: 1.13 µM
  TGI: 2.36 µM
COLO 205 colon
  GI50: 1.71 µM
  TGI: 3.52 µM
SNB-75 CNS
  GI50: 1.74 µM
  TGI: 3.18 µM
TK-10 renal
  GI50: 17.5 µM
  TGI: 31.8 µM
A549 NSCLC
  GI50: 1.72 µM
  TGI: 3.55 µM
KM12 colon
  GI50: 1.7 µM
  TGI: 10.6 µM
HOP-62 NSCLC
  GI50: 1.86 µM
  TGI: 3.38 µM
DU-145 prostate
  GI50: 1.54 µM
  TGI: 2.87 µM
UACC-62 melanoma
  GI50: 1.71 µM
  TGI: 3.39 µM

## O=P1(NCCCl)OCCC(OO)N1CCCl (stereo not given)
NCI/ADR-RES ovarian
  TGI: > 100 µM
SK-MEL-5 melanoma
  TGI: > 100 µM
COLO 205 colon
  TGI: > 57.3 µM
SNB-75 CNS
  TGI: 97 µM
TK-10 renal
  TGI: 39.8 µM
A549 NSCLC
  TGI: > 100 µM
KM12 colon
  TGI: > 100 µM
HOP-62 NSCLC
  TGI: > 100 µM
DU-145 prostate
  TGI: > 100 µM
UACC-62 melanoma
  TGI: 63.7 µM

## COc1ccc(-n2cc(-c3ccc(F)cc3)[nH]c2=O)cc1OC
NCI/ADR-RES ovarian
  GI50: > 100 µM
  TGI: > 100 µM
SK-MEL-5 melanoma
  GI50: > 100 µM
  TGI: > 100 µM
COLO 205 colon
  GI50: > 100 µM
  TGI: > 100 µM
SNB-75 CNS
  GI50: > 100 µM
  TGI: > 100 µM
TK-10 renal
  GI50: > 100 µM
  TGI: > 100 µM
A549 NSCLC
  GI50: > 100 µM
  TGI: > 100 µM
KM12 colon
  GI50: > 100 µM
  TGI: > 100 µM
HOP-62 NSCLC
  GI50: 54.7 µM
  TGI: > 100 µM
DU-145 prostate
  GI50: > 100 µM
  TGI: > 100 µM
UACC-62 melanoma
  GI50: > 100 µM
  TGI: > 100 µM

## C=C(C=O)[C@@H]1CC=C(C=O)CC1
NCI/ADR-RES ovarian
  GI50: 3.89 µM
  TGI: > 100 µM
SK-MEL-5 melanoma
  GI50: 3.9 µM
  TGI: > 46.5 µM
SNB-75 CNS
  GI50: 15.9 µM
  TGI: > 100 µM
TK-10 renal
  GI50: 8.76 µM
  TGI: 54.6 µM
A549 NSCLC
  GI50: 35.1 µM
  TGI: > 91.7 µM
KM12 colon
  GI50: 4.21 µM
  TGI: 27.8 µM
HOP-62 NSCLC
  GI50: 24.8 µM
  TGI: > 76.7 µM
DU-145 prostate
  GI50: 3.44 µM
  TGI: 11.2 µM
UACC-62 melanoma
  GI50: 3.14 µM
  TGI: 12.2 µM

## Cc1cc(=O)[nH]c2c1C(=O)C(=O)C=C2
NCI/ADR-RES ovarian
  GI50: 18.4 µM
  TGI: 40.7 µM
SK-MEL-5 melanoma
  GI50: 16.7 µM
  TGI: 36.9 µM
COLO 205 colon
  GI50: > 100 µM
  TGI: > 100 µM
SNB-75 CNS
  GI50: 33.5 µM
  TGI: > 100 µM
TK-10 renal
  GI50: 64.1 µM
  TGI: > 100 µM
A549 NSCLC
  GI50: 81.9 µM
  TGI: > 100 µM
HOP-62 NSCLC
  GI50: 17.6 µM
  TGI: 35.7 µM
DU-145 prostate
  GI50: 25 µM
  TGI: 53.9 µM
UACC-62 melanoma
  GI50: 36.4 µM
  TGI: > 100 µM
